Results from patent US7592308B2, “F3W variants of the lantibiotic mersacidin and its use” (priority 2004, dated 2009).
≈ marks a conversion by molar mass, not a printed value. Read-outs that look alike come from different tables or passages of the source.

What was measured:
[1] = test system: Micrococcus luteus ATCC4698; experiment: Bioassay of culture supernatant against M. luteus; assay type: cell-based; conditions: aqueous phase of chloroform-extracted culture supernatant
Description: The cultures were assayed for production of mersacidin by HPLC and bioassay against Micrococcus luteus ATCC4698. Samples of production cultures (1 ml) were centrifuged at 14000 rpm for 10 minutes. Supernatants were decanted and used undiluted for HPLC and bioassay.
For bioassays, M.luteus was inoculated from frozen stock into 10 ml half-strength Muller-Hinton broth in a 50 ml conical flask, and incubated at 30C with shaking at 250 rpm for approximately 7 hours, 0.3 ml of this culture was used to inoculate 300 ml of Muller-Hinton agar which was poured into a bioassay plate. Wells (6 mm diameter) were made with a cork-borer. Samples of 50 μl of supernatants were added to these wells. The concentration of mersacidin in the samples was calculated by comparing the diameter of inhibition zones of samples against a range of concentrations of a pure mersacidin standard.
Chloramphenicol resistant colonies were selected and grown in 3 ml Tryptic Soy Broth at 30C for 24 hours, 250 rpm and 0.3 ml of these cultures were used to inoculate 7 ml of 2×BPM+300 mM glucose+chloramphenicol (20 mg/l). After five days of incubation at 30C and 250 rpm, a 1 ml sample was collected and centrifuged at 13000 rpm for 10 min, the supernatant was removed, extracted with 1 volume of chloroform and the aqueous phase used for bioassay and HPLC-MS analysis (see accompanying disclosure for method). […] These masses are consistent with production of the expected mature lantibiotic products.
The ligation mixture was used to transform E. coli DH10B (Invitrogen). Ampicillin resistant colonies were selected, grown in LB+ampicillin (100 mg/l) and plasmids were isolated and characterised by sequence analysis. Plasmid encoding the expected mutant (pNB2024) was used to transform E. coli ET12567 and the plasmid obtained from this strains was used to transform Bacillus sp. HIL Y-85,54728 E17A. Chloramphenicol resistant colonies were selected and grown in 3 ml Tryptic Soy Broth at 30C for 24 hours, 250 rpm and 0.3 ml of these cultures were used to inoculate 7 ml of 2×BPM+300 mM glucose+chloramphenicol (20 mg/l). […]

S. aureus SG511 = assay type: cell-based, Staphylococcus aureus
Description: (§1) MIC tests were performed with some of the variants of Example 2 on a range of other organisms. The results are shown in Tables 9 and 10 (figures in μg/ml): […]

S. aureus CS = assay type: cell-based, Staphylococcus aureus
Description: as §1

S. aureus COL MRSA = assay type: cell-based, Staphylococcus aureus
Description: as §1

S. aureus 1012-13 MRSA = assay type: cell-based, Staphylococcus aureus
Description: as §1

S. pyogenes 13608 = assay type: cell-based, Streptococcus pyogenes
Description: as §1

S. pyogenes 16205 = assay type: cell-based, Streptococcus pyogenes
Description: as §1

E. faecium 4147 VRE = assay type: cell-based, Enterococcus faecium
Description: as §1

E. faecium 4147-1 = assay type: cell-based, Enterococcus faecium
Description: as §1

M. luteus 4698 = assay type: cell-based, Micrococcus luteus
Description: (§2) A selection of the variants produced in Example 1 above were tested further for activity against a range of bacteria. Minimum inhibitory concentrations (MICs) for all organisms with the exception of Streptococcus pneumoniae were determined by two-fold serial antibiotic dilutions in Mueller-Hinton broth (MHB) supplemented with 50 μg/ml calcium as calcium chloride dihydrate. Minimum inhibitory concentrations (MICs) for S. pneumoniae were determined by two-fold serial antibiotic dilutions in Brain Heart Infusion (BHI) broth supplemented with 50 μg/ml calcium as calcium chloride dihydrate. Antimicrobial agent stock solutions were prepared and stored according to NCCLS standard M7-A6.
(§3) Actively growing broth cultures were diluted to contain […] by adjusting to an absorbance of 0.2-0.3 at 600 nm, equivalent to the McFarland 0.5 standard. They were then diluted a further 1:100 in broth. The assays were performed in duplicate in sterile 96-well microtitre plates in a total volume of 200 μl (160 μl broth, 20 μl antibiotic, 20 μl inoculum) in a concentration range from 64 μg/ml to 0.06 μg/ml. The 12th well of the microtitre plate contained no antimicrobial agent. Vancomycin was used as a reference antibiotic for quality control. Plates were incubated aerobically, shaking, for 18-20 hours at 37° C. with the MIC defined as the lowest concentration of drug that produced no visible growth.

E. faecium BM4147 = experiment: MIC test, further organisms; assay type: cell-based, Enterococcus faecium; conditions: Table 10; duplicate
Description: as §1

E. faecalis 29212 = experiment: MIC, two-fold serial dilution in broth; assay type: cell-based, Enterococcus faecalis; conditions: Table 8A; MHB + 50 μg/ml calcium; duplicate
Description: as §2, §3

S. aureus COL = assay type: cell-based, Staphylococcus aureus
Description: as §1

S. aureus LT 1012-13 = experiment: MIC test, further organisms; assay type: cell-based, Staphylococcus aureus; conditions: Table 10; duplicate
Description: as §1

S. aureus Mu50 = experiment: MIC test, further organisms; assay type: cell-based, Staphylococcus aureus; conditions: Table 10; duplicate
Description: as §1

E. faecium 19579 = experiment: MIC, two-fold serial dilution in broth; assay type: cell-based, Enterococcus faecium; conditions: Table 8A; MHB + 50 μg/ml calcium; duplicate
Description: as §2, §3

E. faecium 7131121 = experiment: MIC, two-fold serial dilution in broth; assay type: cell-based, Enterococcus faecium; conditions: Table 8A; MHB + 50 μg/ml calcium; duplicate
Description: as §2, §3

S. pneumoniae R6 = assay type: cell-based, Streptococcus pneumoniae; conditions: Table 8B; BHI broth + 50 μg/ml calcium; duplicate
Description: as §2, §3

| MIC S. aureus SG511 (S. aureus SG511) [µg/mL] | MIC S. aureus CS (S. aureus CS) [µg/mL] | MIC S. aureus COL MRSA (S. aureus COL MRSA) [µg/mL] | MIC S. aureus 1012-13 MRSA (S. aureus 1012-13 MRSA) [µg/mL] | MIC S. pyogenes 13608 (S. pyogenes 13608) [µg/mL] | MIC S. pyogenes 16205 (S. pyogenes 16205) [µg/mL] | MIC M. luteus 4698 (M. luteus 4698; 4698) [µg/mL] | SMILES | antibiotic activity in bioassay against M. luteus [1] | MIC E. faecium BM4147 (E. faecium BM4147) | MIC E. faecalis 29212 (E. faecalis 29212) | MIC S. aureus LT 1012-13 (S. aureus LT 1012-13) | MIC S. aureus Mu50 (S. aureus Mu50) | also measured |
| --- | --- | --- | --- | --- | --- | --- | --- | --- | --- | --- | --- | --- | --- |
| 2 (≈ 1.07 µM) | 4 (≈ 2.14 µM) | 16 (≈ 8.58 µM) | 4 (≈ 2.14 µM) | 0.125 (≈ 0.067 µM) | 0.125 (≈ 0.067 µM) | 0.5 (≈ 0.268 µM) | C=C1NC(=O)C2NC(=O)[C@H](CC(C)C)NC(=O)C(NC(=O)[C@@H]3CSC(C)C(NC(=O)[C@H](Cc4c[nH]c5ccccc45)NC(=O)C4NC(=O)[C@@H](N)CSC4C)C(=O)N[C@@H](CC(C)C)C(=O)N4CCC[C@H]4C(=O)NCC(=O)NCC(=O)NCC(=O)NCC(=O)N[C@@H](C(C)C)C(=O)N3)C(C)SC[C@H](NC(=O)[C@H](CCC(=O)O)NC1=O)C(=O)N[C@@H]([C@@H](C)CC)C(=O)NC=CSC2C (stereo partly drawn) [F3W, mersacidin F3W] | antibiotic activity comparable to mersacidin |  |  |  |  | MIC E. faecium 4147 VRE (E. faecium 4147 VRE; 4147 VRE): 32 µg/mL (≈ 17.2 µM); MIC E. faecium 4147-1 (E. faecium 4147-1; Table 9, 16 h): 32-16 h, μg/ml; MIC E. faecium 4147-1 (E. faecium 4147-1; Table 9, 23 h): 64-23 h μg/ml |
| 8 (≈ 4.35 µM) | 8 (≈ 4.35 µM) | 32 (≈ 17.4 µM) | 16 (≈ 8.69 µM) | 1 (≈ 0.543 µM) | 1 (≈ 0.543 µM) | 4 (≈ 2.17 µM) | C=C1NC(=O)C2NC(=O)[C@H](CC(C)C)NC(=O)C(NC(=O)[C@@H]3CSC(C)C(NC(=O)[C@H](Cc4ccccc4)NC(=O)C4NC(=O)[C@@H](N)CSC4C)C(=O)N[C@@H](CC(C)C)C(=O)N4CCC[C@H]4C(=O)NCC(=O)N[C@@H](C)C(=O)NCC(=O)NCC(=O)N[C@@H](C(C)C)C(=O)N3)C(C)SC[C@H](NC(=O)[C@H](CCC(=O)O)NC1=O)C(=O)N[C@@H]([C@@H](C)CC)C(=O)NC=CSC2C (stereo partly drawn) [G8A, mersacidin G8A] | has antibiotic activity |  |  |  |  | MIC E. faecium 4147 VRE (E. faecium 4147 VRE; Table 9, 16 h): 64-16 h, μg/ml; MIC E. faecium 4147 VRE (E. faecium 4147 VRE; Table 9, 24 h): 128-24 h μg/ml; MIC E. faecium 4147-1 (E. faecium 4147-1; 4147-1): 128 µg/mL (≈ 69.6 µM) |
|  |  |  |  |  |  |  | C=C1NC(=O)C2NC(=O)[C@H](CC(C)C)NC(=O)C(NC(=O)[C@@H]3CSC(C)C(NC(=O)[C@H](Cc4ccccc4)NC(=O)C4NC(=O)[C@@H](N)CSC4C)C(=O)N[C@@H](CC(C)C)C(=O)N4CCC[C@H]4C(=O)NCC(=O)NCC(=O)N[C@@H](C)C(=O)NCC(=O)N[C@@H](C(C)C)C(=O)N3)C(C)SC[C@H](NC(=O)[C@H](CCC(=O)O)NC1=O)C(=O)N[C@@H]([C@@H](C)CC)C(=O)NC=CSC2C (stereo partly drawn) [G9A] |  | >64, >64 μg/ml | >64, >64 μg/ml | >64, >64 μg/ml | >64, >64 μg/ml | MIC S. aureus COL (S. aureus COL; COL): 64, >64 μg/ml; MIC M. luteus 4698 (M. luteus 4698; Table 8B, MHB + 50 μg/ml calcium, duplicate): <4, <4 μg/ml |
|  |  |  |  |  |  |  | C=C1NC(=O)C2NC(=O)[C@H](CC(C)C)NC(=O)C(NC(=O)[C@@H]3CSC(C)C(NC(=O)[C@H](Cc4ccccc4)NC(=O)C4NC(=O)[C@@H](N)CSC4C)C(=O)N[C@@H](CC(C)C)C(=O)N[C@@H](Cc4c[nH]cn4)C(=O)NCC(=O)NCC(=O)NCC(=O)NCC(=O)N[C@@H](C(C)C)C(=O)N3)C(C)SC[C@H](NC(=O)[C@H](CCC(=O)O)NC1=O)C(=O)N[C@@H]([C@@H](C)CC)C(=O)NC=CSC2C (stereo partly drawn) [P6H] |  | >64, >64 μg/ml | >64, >64 μg/ml | >64, >64 μg/ml | >64, >64 μg/ml | MIC E. faecium 19579 (E. faecium 19579): >64, >64 μg/ml; MIC E. faecium 7131121 (E. faecium 7131121): >64, >64 μg/ml; MIC S. aureus COL (S. aureus COL; Table 10, duplicate): >64, >64 μg/ml; MIC S. pneumoniae R6 (S. pneumoniae R6): >64, 64 μg/ml |
